What was measured:
[1] = test system: 5/6 nephrectomy rat model; experiment: Left-ventricular diastolic dysfunction under isoprenaline infusion in 5/6 nephrectomized rats; type: in vivo; conditions: 4 weeks
Description: (§1) B-3. Effects of Partial A1 Agonists on Renal and Cardiac Function in 5/6 Nephrectomized Rats (Example 1 for Chronic Kidney Disorder)
(§2) 5/6 nephrectomy in the rat, in which one kidney and the renal cortex of the second kidney are surgically removed (=5/6 of functional kidney tissue) is an established animal model for interstitial renal fibrosis and chronic renal insufficiency [C. Fleck et al., “Suitability of 5/6 nephrectomy (5/6NX) for the induction of interstitial renal fibrosis in rats Influence of sex, strain, and surgical procedure”, Exp. Tox. Pathology 2006, 57, 195-205]. The model is characterized by progressive proteinuria, disturbed tubular electrolyte transport, a reduced glomerular filtration rate, an increase in urinary output, interstitial fibrosis with reactively occurring lymphocyte infiltrates, glomerulosclerosis and tubular atrophy. The level of proteinuria is a specific index of the renal function prognosis: the higher the proteinuria, the greater is the functional and structural kidney injury and therefore progression of chronic to terminal renal insufficiency (uraemia). During monitoring of therapy, e.g. with the ACE inhibitor enalapril, the course of proteinuria provides information on the functional and structural response to the therapy and thus on the renal function prognosis. As a result of the renal insufficiency and accumulation of umemic toxins, in the animals there is secondary development of a umemic cardiomyopathy, depending on the severity associated with hypertension, increased heart rate, reduced parasympathetic tone, myocardial, left-ventricular hypertrophy and fibrosis, diastolic dysfunction and an increased prevalence of arrhythmias [Svilerova et al. 2010 Physiol Res 59: S81-S88).
(§3) Procedure: male Wistar:WU rats (210-250 g) from Charles River had the left kidney and the renal cortex of the right kidney removed (=SNX) in one session; sham-operated rats served as control group (=SOP). The following groups, each with 12 rats per group, were investigated:
(§4) Group 2 SNX+placebo (60 g glycerol+100 g water+969 g PEG-400)
(§5) Group 3 SNX+10 mg/kg body weight/day enalapril (reference therapy, in the drinking water)
(§6) Group 4 SNX+0.1 mg/kg body weight/day partial A1 agonist EXAMPLE 1, p.o. in placebo
(§7) Group 5 SNX+1.0 mg/kg body weight/day partial A1 agonist EXAMPLE 1, p.o. in placebo
(§8) Group 6 SNX+0.3 mg/kg body weight/day partial A1 agonist EXAMPLE 4, p.o. in placebo
(§9) Group 7 SNX+3.0 mg/kg body weight/day partial A1 agonist EXAMPLE 4, p.o. in placebo
(§10) Three weeks after 5/6 nephrectomy, the rats developed manifest proteinuria, from this time point the rats were treated for a further four weeks corresponding to the groups stated above. At the end of the protocol, the following samples were obtained/measurements were carried out: eight-hour urine collection with determination of the concentration of hFABP in the urine by ELISA (Rat/Mouse h-FABP ELISA, Hycultbiotech), as marker for end organ damage, invasive measurement of the isoprenaline-induced increase (cumulatively 12.5 ng-250 ng/kg isoprenaline, i.v.) in systolic and diastolic left ventricular function, and TaqMan analyses of renal injury markers in the renal cortex.

[2] = test system: 5/6 nephrectomy rat model; experiment: Functional and structural renal dysfunction in 5/6 nephrectomized rats; type: in vivo; conditions: 4 weeks; for End organ injury marker concentration in the urine: hFABP / End organ injury marker concentration in the urine: hFABP per creatinine: ELISA; for Kidney injury marker-1 [gene expression] / Lipocalin-2 [gene expression] / Osteopontin [gene expression]: renal cortex
Description: as §1, §2, §3, §4, §5, §6, §7, §8, §9, §10

[3] = test system: unilaterally nephrectomized SHR; experiment: Functional and structural myocardial dysfunction in unilaterally nephrectomized spontaneously hypertensive rats; type: in vivo, rat; conditions: Group 4: SNX + 1.0 mg/kg body weight/day p.o., 4 weeks
Description: B-4. Effects of Partial A1 Agonists on Renal and Cardiac Function in Unilaterally Nephrectomized and Spontaneously Hypertensive Rats (Example 2 for Chronic Kidney Disorders)
Unilaterally nephrectomized, spontaneously hypertensive rats (SHR) are an established animal model for investigating the development and progression of hypertensive damage of the glomeruli in the remaining kidney [H. Kinuno et al., “Effects of uninephrectomy on renal structural properties in spontaneously hypertensive rats”, Clin and Exp Pharmacol and Physiol 2005, 32, 173-178]. […] Furthermore, renal excretion of substances usually eliminated in the urine, such as creatinine and urea, is reduced and the electrolyte metabolism is disturbed, the latter being associated with volume retention.
Procedure: male SHR rats (180-220 g) from Taconic had the left kidney removed in one session (=UNX). Normotensive Wistar Kyoto rats (WKY) from Taconic served as control. The following groups, each with 12 rats per group, were investigated:
Group 2 UNX+placebo (60 g glycerol+100 g water+969 g PEG-400)
Group 3 UNX+10 mg/kg body weight/day enalapril (reference therapy, in the drinking water)
Group 4 SNX+1.0 mg/kg body weight/day partial A1 EXAMPLE 1, p.o. in placebo
Group 5 SNX+3.0 mg/kg body weight/day partial A1 EXAMPLE 4, p.o. in placebo
Three weeks after unilateral nephrectomy, the SHRs developed manifest hypertensive damage of the glomeruli in the remaining kidney, from this time point on the rats were treated for a further four weeks corresponding to the groups given above. At the end of the protocol, the following samples were obtained/measurements were carried out: eight-hour urine collection, invasive measurement of systolic and diastolic left ventricular function, and TaqMan analyses of renal injury markers in the renal cortex.

[4] = Group 4: SNX + 0.1 mg/kg body weight/day p.o.
[5] = Group 5: SNX + 1.0 mg/kg body weight/day p.o.

**Q.** How did the “left-ventricular pressure decrease as a function of time” value (“left-ventricular pressure decrease” for short) ([1]; isoprenaline 0 ng/kg body weight, Group 4: SNX + 0.1 mg/kg body weight/day p.o.) turn out when `N#Cc1c(N)nc(SCc2csc(-c3ccc(Cl)cc3)n2)c(C#N)c1-c1ccc(OCCO)cc1` [EXAMPLE 1, 2-Amino-6-({[2-(4-chlorophenyl)-1,3-thiazol-4-yl]methyl}sulphanyl)-4-[4-(2-hydroxyethoxy)phenyl]pyridine-3,5-dicarbonitrile] was run?
**A.** Its value is 6769 ± 206 mmHg/s.

**Q.** What about the “left-ventricular pressure decrease” value ([1]; isoprenaline 0 ng/kg body weight, Group 5: SNX + 1.0 mg/kg body weight/day p.o.) of the same compound?
**A.** Its value is 6516 ± 334 mmHg/s.

**Q.** And the “left-ventricular pressure decrease” value ([1]; isoprenaline 12.5 ng/kg body weight, Group 4: SNX + 0.1 mg/kg body weight/day p.o.)?
**A.** The value was 7990 ± 208 mmHg/s.

**Q.** And the “left-ventricular pressure decrease” value ([1]; isoprenaline 12.5 ng/kg body weight, Group 5: SNX + 1.0 mg/kg body weight/day p.o.)?
**A.** The value was 7126 ± 283 mmHg/s.

**Q.** And the “left-ventricular pressure decrease” value ([1]; isoprenaline 25 ng/kg body weight, Group 4: SNX + 0.1 mg/kg body weight/day p.o.)?
**A.** Its value is 8283 ± 222 mmHg/s.

**Q.** What about the “left-ventricular pressure decrease” value ([1]; isoprenaline 25 ng/kg body weight, Group 5: SNX + 1.0 mg/kg body weight/day p.o.) of the same compound?
**A.** Its value is 7309 ± 285 mmHg/s.

**Q.** And the “left-ventricular pressure decrease” value ([1]; isoprenaline 50 ng/kg body weight, Group 4: SNX + 0.1 mg/kg body weight/day p.o.)?
**A.** Its value is 8913 ± 282 mmHg/s.

**Q.** What about the “left-ventricular pressure decrease” value ([1]; isoprenaline 50 ng/kg body weight, Group 5: SNX + 1.0 mg/kg body weight/day p.o.) of the same compound?
**A.** The value was 7990 ± 213 mmHg/s.

**Q.** And the “left-ventricular pressure decrease” value ([1]; isoprenaline 100 ng/kg body weight, Group 4: SNX + 0.1 mg/kg body weight/day p.o.)?
**A.** The value was 9701 ± 300 mmHg/s.

**Q.** And the “left-ventricular pressure decrease” value ([1]; isoprenaline 100 ng/kg body weight, Group 5: SNX + 1.0 mg/kg body weight/day p.o.)?
**A.** The value was 8722 ± 183 mmHg/s.

**Q.** And the “left-ventricular pressure decrease” value ([1]; isoprenaline 250 ng/kg body weight, Group 4: SNX + 0.1 mg/kg body weight/day p.o.)?
**A.** Its value is 9721 ± 307 mmHg/s.

**Q.** What about the “left-ventricular pressure decrease” value ([1]; isoprenaline 250 ng/kg body weight, Group 5: SNX + 1.0 mg/kg body weight/day p.o.) of the same compound?
**A.** Its value is 9028 ± 226 mmHg/s.

**Q.** And the P-creatinine [2, 4]?
**A.** The P-creatinine was 66 ± 1 µmol/L.

**Q.** And the P-urea [2, 4]?
**A.** The P-urea was 11 ± 0.5 mmol/L.

**Q.** What about the U-creatinine [2, 4] of the same compound?
**A.** The U-creatinine was 2.4 ± 0.3 μmol/ml urine/kg BW/h.

**Q.** What about the U-protein [2, 4] of the same compound?
**A.** Its U-protein is 1.07 ± 0.28 μmol/ml urine/kg BW/h.

**Q.** And the U-sodium [2, 4]?
**A.** Its U-sodium is 18 ± 3 μmol/ml urine/kg BW/h.

**Q.** And the U-urea [2, 4]?
**A.** Its U-urea is 260 ± 31 μmol/ml urine/kg BW/h.

**Q.** And the Urine volume [2, 4]?
**A.** The Urine volume was 2.2 ± 0.1 ml/kg BW/h.

**Q.** And the “End organ injury marker concentration in the urine: hFABP” value [2, 4]?
**A.** Its value is 1088 ± 159 pg hFABP/ml urine/h.

**Q.** And the “End organ injury marker concentration in the urine: hFABP per creatinine” value [2, 4]?
**A.** The value was 194 ± 36 pg hFABP/μmol creatinine.

**Q.** And the “Kidney injury marker-1 [gene expression]” value [2, 4]?
**A.** The value was 60 ± 17 rel. expression.

**Q.** What about the “Lipocalin-2 [gene expression]” value [2, 4] of the same compound?
**A.** The value was 307 ± 51 rel. expression.

**Q.** And the “Osteopontin [gene expression]” value [2, 4]?
**A.** Its value is 6008 ± 1209 rel. expression.

**Q.** What about the P-creatinine [2, 5] of the same compound?
**A.** Its P-creatinine is 63 ± 1 µmol/L.

**Q.** And the P-urea [2, 5]?
**A.** The P-urea was 11 ± 0.3 mmol/L.

**Q.** And the U-creatinine [2, 5]?
**A.** Its U-creatinine is 2.3 ± 0.3 μmol/ml urine/kg BW/h.

**Q.** What about the U-protein [2, 5] of the same compound?
**A.** The U-protein was 0.75 ± 0.14 μmol/ml urine/kg BW/h.

**Q.** What about the U-sodium [2, 5] of the same compound?
**A.** The U-sodium was 31 ± 3 μmol/ml urine/kg BW/h.

**Q.** What about the U-urea [2, 5] of the same compound?
**A.** The U-urea was 264 ± 35 μmol/ml urine/kg BW/h.

**Q.** What about the Urine volume [2, 5] of the same compound?
**A.** The Urine volume was 2.0 ± 0.2 ml/kg BW/h.

**Q.** What about the “End organ injury marker concentration in the urine: hFABP” value [2, 5] of the same compound?
**A.** Its value is 1136 ± 229 pg hFABP/ml urine/h.

**Q.** And the “End organ injury marker concentration in the urine: hFABP per creatinine” value [2, 5]?
**A.** Its value is 175 ± 39 pg hFABP/μmol creatinine.

**Q.** And the “Kidney injury marker-1 [gene expression]” value [2, 5]?
**A.** The value was 62 ± 13 rel. expression.

**Q.** And the “Lipocalin-2 [gene expression]” value [2, 5]?
**A.** Its value is 313 ± 65 rel. expression.

**Q.** And the “Osteopontin [gene expression]” value [2, 5]?
**A.** Its value is 5476 ± 1131 rel. expression.

**Q.** What about the Diastolic blood pressure [3] of the same compound?
**A.** Its Diastolic blood pressure is 112 ± 6 mmHg.

**Q.** What about the Heart rate [3] of the same compound?
**A.** The Heart rate was 295 ± 11 beats/min.

**Q.** And the “Left ventricular hypertrophy (LVS/RV ratio, mg/mg)” value [3]?
**A.** Its value is 4.3 ± 0.2 mg/mg.

**Q.** And the Left-ventricular end-diastolic pressure [3]?
**A.** The Left-ventricular end-diastolic pressure was 8.5 ± 1.3 mmHg.

**Q.** And the Left-ventricular pressure [3]?
**A.** The Left-ventricular pressure was 169 ± 8 mmHg.

**Q.** What about the “Pressure decrease over time” value [3] of the same compound?
**A.** The value was −10181 ± 523 mmHg/s.

**Q.** What about the “Pressure increase over time” value [3] of the same compound?
**A.** Its value is 7943 ± 512 mmHg/s.

**Q.** What about the Systolic blood pressure [3] of the same compound?
**A.** Its Systolic blood pressure is 171 ± 8 mmHg.
